Experimental data as given in paper PMC4147587, “Synthesis and Analgesic Effects of μ-TRTX-Hhn1b on Models of Inflammatory and Neuropathic Pain” (Toxins, 2014).
Like-named read-outs stand apart in the source and are kept apart here. No end group written: not given here.

What was measured:
[1] = system: formalin-induced pain behaviors in rats; assay: formalin-induced inflammatory rat model; assay type: in vivo, rat (Sprague-Dawley); conditions: rat, in vivo, ip
Method: Acute and chronic nociceptive responses were measured using the rat paw formalin test as descried by Dubission and modified by Malmberg. Adult Sprague-Dawley rats (male, weighing 180–220 g) were used for this behavioral test. During the test, each rat was placed into open polyvinyl cages (30 cm × 40 cm × 30 cm) and at least 30 min before administration of the toxin. All agents were administered 30 min prior to s.c. intraplantar formalin injection. A volume of 50 μL formalin (5%) solution was used as previously described and injected into the plantar surface of one hind paw. Lifting, favoring, licking, shaking and flinching of the injected paw were recorded as nociceptive responses. The total time of the nociceptive response was measured every 5 min and […] (mean ± SEM). Recording of nociceptive behavior commenced immediately after formalin injection and was continued for 40 min.

[2] = system: paroxysmal extreme pain disorder (PEPD); conditions: patients; cited from earlier work
Source text: (§1) Voltage-gated sodium channels (VGSCs) are essential for the initiation and propagation of action potentials in excitable tissues, such as nerves and muscles. Considerable in vivo and in vitro studies indicate that VGSCs play a key role in neuropathic and inflammatory pain, which begins with the aberrant firing of action potential bursts in damaged neuronal tissue. Of the nine subtypes of VGSCs identified to date and designated as Nav1.1–1.9, Nav1.3, 1.7, 1.8 and 1.9 play specialized roles in nociceptive pathways and are considered ideal targets for the development of analgesi ...

[3] = system: Nav1.2, Nav1.3, Nav1.4, Nav1.5, Nav1.7; conditions: native toxin; ref 27 (unpublished work, 2014); cited from earlier work
[4] = biological target: T1, human Nav1.7 (Homo sapiens, UniProt Q15858); assay: whole-cell patch clamp, human Nav1.7 transiently expressed in HEK 293 cells; assay type: cell-based; conditions: comparison group printed as "native toxin group"
T1 construct: expressed in transfected cells; host or cells: HEK293 cells, transient transfection with Lipofectamine 2000
T1 sequence (Q15858 other isoform, or with tags, fused parts or gaps): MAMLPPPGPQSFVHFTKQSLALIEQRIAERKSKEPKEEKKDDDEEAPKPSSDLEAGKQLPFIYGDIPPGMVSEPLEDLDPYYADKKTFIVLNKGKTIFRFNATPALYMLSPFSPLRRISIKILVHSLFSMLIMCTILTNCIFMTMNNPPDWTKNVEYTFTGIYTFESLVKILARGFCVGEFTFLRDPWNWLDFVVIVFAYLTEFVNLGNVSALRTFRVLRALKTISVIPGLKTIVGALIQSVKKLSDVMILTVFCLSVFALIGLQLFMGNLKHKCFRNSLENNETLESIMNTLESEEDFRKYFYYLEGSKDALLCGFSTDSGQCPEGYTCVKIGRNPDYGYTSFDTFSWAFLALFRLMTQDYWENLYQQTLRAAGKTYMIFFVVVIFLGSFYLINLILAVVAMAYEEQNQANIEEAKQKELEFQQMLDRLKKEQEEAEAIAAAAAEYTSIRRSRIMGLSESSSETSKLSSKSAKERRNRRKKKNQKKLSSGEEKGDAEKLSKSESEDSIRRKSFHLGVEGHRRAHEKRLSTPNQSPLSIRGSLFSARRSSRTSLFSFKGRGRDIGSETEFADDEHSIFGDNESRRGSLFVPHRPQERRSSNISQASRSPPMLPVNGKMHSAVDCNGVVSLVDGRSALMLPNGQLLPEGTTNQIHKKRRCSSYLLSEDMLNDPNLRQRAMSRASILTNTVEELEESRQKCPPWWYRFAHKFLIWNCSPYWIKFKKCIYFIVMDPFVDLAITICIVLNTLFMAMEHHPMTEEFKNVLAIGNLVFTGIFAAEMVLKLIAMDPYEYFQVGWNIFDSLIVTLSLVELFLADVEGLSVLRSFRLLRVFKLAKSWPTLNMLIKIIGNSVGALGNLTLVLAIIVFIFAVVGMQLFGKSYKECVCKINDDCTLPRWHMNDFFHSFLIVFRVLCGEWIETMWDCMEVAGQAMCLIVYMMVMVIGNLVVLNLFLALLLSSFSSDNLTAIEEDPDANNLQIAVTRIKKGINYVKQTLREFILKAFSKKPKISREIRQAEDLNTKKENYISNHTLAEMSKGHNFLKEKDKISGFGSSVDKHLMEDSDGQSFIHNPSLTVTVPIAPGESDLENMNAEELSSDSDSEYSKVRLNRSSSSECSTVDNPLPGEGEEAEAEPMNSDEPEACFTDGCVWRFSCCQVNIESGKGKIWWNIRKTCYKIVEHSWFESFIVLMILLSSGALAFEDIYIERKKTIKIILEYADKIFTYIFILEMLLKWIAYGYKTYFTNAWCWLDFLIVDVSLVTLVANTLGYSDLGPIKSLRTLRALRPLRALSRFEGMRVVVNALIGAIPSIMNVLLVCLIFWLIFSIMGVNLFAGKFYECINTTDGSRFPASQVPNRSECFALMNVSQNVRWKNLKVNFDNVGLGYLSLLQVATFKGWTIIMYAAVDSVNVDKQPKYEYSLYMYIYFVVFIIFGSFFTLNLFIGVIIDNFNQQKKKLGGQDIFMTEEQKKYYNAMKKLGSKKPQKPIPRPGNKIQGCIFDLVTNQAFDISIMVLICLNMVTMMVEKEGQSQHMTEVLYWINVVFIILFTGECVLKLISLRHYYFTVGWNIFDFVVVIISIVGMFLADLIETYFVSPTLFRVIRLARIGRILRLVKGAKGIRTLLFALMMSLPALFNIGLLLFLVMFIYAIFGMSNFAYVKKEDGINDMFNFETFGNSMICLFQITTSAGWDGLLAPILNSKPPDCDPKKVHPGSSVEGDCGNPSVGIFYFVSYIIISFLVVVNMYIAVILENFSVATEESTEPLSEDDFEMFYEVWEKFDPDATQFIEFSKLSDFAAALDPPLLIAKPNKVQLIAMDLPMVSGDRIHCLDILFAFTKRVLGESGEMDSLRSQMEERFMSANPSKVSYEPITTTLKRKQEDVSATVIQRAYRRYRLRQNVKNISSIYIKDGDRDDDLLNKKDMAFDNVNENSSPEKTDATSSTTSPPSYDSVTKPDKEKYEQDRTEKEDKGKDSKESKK
T1 sequence (Q07699 19-218, further chain): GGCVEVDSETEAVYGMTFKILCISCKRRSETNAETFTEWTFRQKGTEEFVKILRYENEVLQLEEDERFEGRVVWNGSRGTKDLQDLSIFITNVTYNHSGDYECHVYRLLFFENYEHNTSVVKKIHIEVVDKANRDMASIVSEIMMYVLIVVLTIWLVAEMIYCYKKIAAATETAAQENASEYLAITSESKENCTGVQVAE
Source text: Figure 2 Inhibitory effect of synthetic μ-TRTX-Hhn1b on Nav1.7 expressed on HEK 293 cells. […] (B) The inhibition of μ-TRTX-Hhn1b on Nav1.7 was dose-dependent. […] Data are plotted as a fraction of the maximum conductance. The voltage-dependence of steady-state inactivation was estimated using a standard double-pulse protocol, in which a 20-ms depolarizing test potential of 0 mV followed a 500-ms prepulse at potentials that ranged from −130 to −10 mV with a 10-mV increment. Cells were held at −100 mV.
A human Nav1.7 channel plasmid (accession No. NM_002977) and a plasmid for green ﬂuorescent protein were transiently transfected into human embryonic kidney 293 (HEK293) cells using Lipofectamine 2000 (Invitrogen, Carlsbad, CA, USA) according to the manufacturer’s instructions. HEK293 cells were grown under standard tissue culture conditions (5% CO2; 37 °C) in DMEM supplemented with 10% FBS. The β1 subunit was cotransfected with the Nav1.7 channel to increase the current density. Cells with green ﬂuorescence were selected for whole-cell patch-clamp recording at 36–72 h after transfection. Patch-clamp experiments were performed at room temperature. Suction pipettes (2.0–3.0 MΩ) were made from borosilicate glass capillary tubes using a two-step vertical micropipette puller. The pipette solution contained (in mM): CsCl 145, MgCl2∙6H2O 4, HEPES 10, EGTA 10, glucose 10, ATP 2 (pH 7.2). The external solution contained (in mM): NaCl 145, KCl 2.5, CaCl2 1.5, MgCl2.6H2O 1.2, HEPES 10, glucose 10 (pH 7.4). Experimental data were collected and analyzed using the program Pulse/Pulsefit 8.0 (HEKA Electronics, Pfalz, Germany). Macroscopic sodium currents were filtered at 5 kHz and digitized at 20 kHz with an EPC-9 patch-clamp amplifier (HEKA Electronics, Pfalz, Germany). Series resistance was kept near 5 MΩ and compensated to 65%–70%; linear capacitative and leakage currents were digitally subtracted using the P/4 protocol.

[5] = system: Nav1.7; conditions: native toxin; ref 27 (unpublished work, 2014); cited from earlier work
Source text: μ-TRTX-Hhn1b (HNTX-IV) is a 35-residue peptide from tarantula Ornithoctonus hainana (Haplopelma hainanum) venom. The amino acid sequence is […]. The peptide amidated at its C-terminal has a high proportion of basic residues and is crosslinked by three disulfide bonds.

[6] = system: inherited erythromelalgia (IEM); conditions: patients; cited from earlier work
Source text: as §1

[7] = system: motor coordination of rats (latency to fall off the rotarod); assay type: in vivo, rat (Sprague-Dawley); conditions: rat, in vivo
Method: Motor activity was assessed using a rotarod apparatus for rats (Coulbourn Instruments, Lehigh Valley, PA, USA). The rotarod might be set at any speed from 0 to 50 rpm. For motor coordination assessment, rats were trained for 2 days by walking them each day on an accelerating rotarod from 4 to 40 rpm for 10 min. […] Motor performance was considered as the latency to fall off the rotarod apparatus determined from the mean time in three trials for each rat at each time.

[8] = system: rat models of neuropathic pain; conditions: 37.5 mg/kg i.p., cited from earlier work
Source text: A total of 30 rats with mechanical allodynia were divided into five groups randomly.

CN1CC[C@]23c4c5ccc(O)c4O[C@H]2[C@@H](O)C=C[C@H]3[C@H]1C5 [morphine, reference compound]
pain score [1]: 225.0 ± 55.8 s

NC(=O)N1c2ccccc2C=Cc2ccccc21 [carbamazepine]
control of PEPD [2]: well controlled

ECLGFGKGCNPSNDQCCKSSNLVCSRKHRWCKYEI (disulfide (positions not given here)) [native μ-TRTX-Hhn1b, reference compound]
subtype preference [3]: preferentially inhibited Nav1.2, Nav1.3 and Nav1.7 compared with Nav1.4 and Nav1.5; Nav1.7 was the most sensitive channel
half-activation voltage of Nav1.7 [4]: −20.5 ± 0.2 mV
half-inactivation voltage of Nav1.7 [4]: −42.6 ± 0.2 mV
IC50 [5]: ~21 nM

CCN(CC)CC(=O)Nc1c(C)cccc1C [lidocaine]
treatment of IEM [6]: very ineffective

Cc1cccc(C)c1OCC(C)N (centres unmarked) [mexiletine]
latency to fall off the rotarod [7]: significant latency reduction
treatment of IEM [6]: very ineffective
withdrawal threshold to von Frey hair ([8]; 15 min after injection): significantly increased the withdrawal threshold
withdrawal threshold to von Frey hair ([8]; 45 min after injection): returned to a level non-significantly different from the baseline and vehicle
